Key:
[1] = in vivo
Text: Gallium is absorbed very poorly when orally administered as salts such as the chloride or nitrate (Collery et al. (1989), “Clinical pharmacology of gallium chloride after oral administration in lung cancer patients,” Anticancer Res. 9:353-356; Ho et al. […] J.

[2] = assay type: physicochemical
Experimental: The material forms white to pale beige monoclinic crystals with unit cell parameters of about a=7.899(1)Å, b=8.765(1)Å, c=31.626(2)Å, beta=103.253(7) degrees, V=2131 Å^3, based on powder x-ray diffraction analysis. The solubility of this compound is measured as about 5 millimolar in distilled deionized water at 23° C. Crystallization from other solvents or under other conditions may produce other crystal structures. Under some conditions, water or other solvents may also be incorporated into the structure. […] About 5.5 grams of powdered anhydrous sodium carbonate are added, and stirring continues for additional 12 minutes. […] The remaining crystalline solid is the 3:1 maltol gallium composition. […] The solubility of this composition is measured as about 24 millimolar in distilled deionized water at 23° C.

[3] = tested on: Herpes Simplex; assay: Clinical evaluation for Herpes Simplex (I or II) infection and recurrences; assay type: in vivo, human
Experimental: Patients with Herpes Simplex infection are treated once per day with gelatin capsules containing gallium maltolate. The population of patients is divided into subpopulation with recurrent Herpes Simplex and acute Herpes Simplex infections respectively. These different subpopulations are divided randomly and blindly into two approximately equal groups with four approximately equal subgroups that receive either 0 (placebo), 250, 500, or 750 mg/day gallium maltolate for about six months. The first group of each subpopulation receive the gallium maltolate dose together with 200 mg acyclovir five times per day. The second group of each subpopulation receive the gallium maltolate dose together with 500 mg ganciclovir twice per day. Patients are medically monitored for resolution recurrences of latent Herpes Simplex infection, or medical symptoms of acute Herpes Simplex infection throughout the study, with the monitoring including in situ hybridization of skin lesions for HSV DNA. In addition for the acute Herpes Simplex infected group, blood serum samples are obtained from the patients at days 0, 3, 7, and 10 and are assayed for HSV particle by routine methods and for Herpes Simplex DNA (viral load assay) using PCR.

[4] = tested on: Varicella-Zoster (VZV); assay: Clinical evaluation for Varicella-Zoster (VZV) infection and recurrences; assay type: in vivo, human
Experimental: Gallium maltolate is evaluated clinically for efficacy in treating Varicella-Zoster (VZV) infection in HIV negative individuals who show no signs of immune dysfunction of any type. Patients with VZV infection are treated once per day with gelatin capsules containing gallium maltolate. The population of patients is divided into subpopulation with recurrent VZV (shingles) and acute VZV infections (chickenpox) respectively. These different subpopulations are divided randomly and blindly into two approximately equal groups with four approximately equal subgroups that receive either 0 (placebo), 250, 500, or 750 mg/day gallium maltolate for about six months. The first group of each subpopulation receive the gallium maltolate dose together with 800 mg acyclovir five times per day. The second group of each subpopulation receive the gallium maltolate dose together with 500 mg ganciclovir twice per day. Patients are medically monitored for resolution reoccurrences of latent VZV infection, or medical symptoms of acute VZV infection throughout the study, with the monitoring including in situ hybridization of skin lesions for VZV DNA. In addition for the acute VZV infected group, blood serum samples are obtained from the patients at days 1-5 and are assayed for VZV particles by routine methods and for VZV DNA (viral load assay) using PCR.

[5] = tested on: Epstein-Barr Virus (EBV); assay: Clinical evaluation for Epstein-Barr virus (EBV) infection; assay type: in vivo, human
Experimental: Some of the methods employed in the clinical studies discussed in the following references are used in the evaluation: Schneider et al. (2000), “Regression of Epstein-Barr virus-associated lymphoproliferative disorders in patients with acquired immunodeficiency syndrome during therapy with foscarnet,” Ann. Hematol. 79(4):214-6. Patients with EBV infection are treated once per day with gelatin capsules containing gallium maltolate. The patients are divided randomly and blindly into two approximately equal groups with four approximately equal subgroups that receive either 0 (placebo), 250, 500, or 750 mg/day gallium maltolate for about six months. The first group receive the gallium maltolate dose together with 500 mg ganciclovir twice per day. The second group receive the gallium maltolate dose together with 5500 mg foscarnet, IV infusion over 1.5-2 hr., twice per day. Patients are medically monitored for resolution of EBV infection, with histopathologic examination of hematologic smears to assess characteristic cells an lymphocyte levels. In addition blood serum samples are obtained from the patients at days 1, 3, 7, 10, 14, 17, 21, 24 and 28 and are assayed for EBV particles by routine methods and for EBV DNA (viral load assay) using PCR.

[6] = tested on: HIV; assay: Clinical evaluation for prevention of EBV or KSV neoplasms in HIV patients: HIV; assay type: in vivo; conditions: neoplasm prevention study; MacSynergy II
Text: Both EBV and KSV cause neoplasms, with both causing lymphomas and KSV ([…]) along with HHV-7, possibly in concert with HHV-6 associated with the pathogenesis of Kaposi Sarcoma. Most humans carry all these viruses. A HIV population could be studied without determining whether any of the patients are seropositive or culturable for these pathogens, or preferably a group of HIV patients who are seropositive or culture positive for both EBV and KSV can be identified. Applying the methods of Example 12 with additional guidance from Schneider et al. (2000), supra, yields a protocol for evaluating the contribution of the gallium compounds of the invention in prevention of opportunistic neoplasms caused by the herpes viruses with combination antiviral therapy.
Using essentially the same protocol as Example 12, but with an HIV infected patient population that is seropositive or culture positive for both EBV and KSV and substituting the specific assays such as PCR, serodetection for the EBV and KSV viruses, the role of gallium as a combination agent in preventing the neoplasms caused by members of the herpesvirus family in HIV disease can be evaluated. The subpopulations are divided according to CD4 counts as in Example 12. Each subpopulation's first group is treated in addition to the foscarnet with interferon-alpha. […]

[7] = HIV negative patients, 250-750 mg/day oral with acyclovir or ganciclovir

## Cc1occc(=O)c1[O-].Cc1occc(=O)c1[O-].Cc1occc(=O)c1[O-].[Ga+3] [gallium maltolate, tris(3-hydroxy-2-methyl-4H-pyran-4-onato)gallium]
[1]
  Oral gallium absorption relative to gallium salts: roughly ten times higher than from gallium salts
[2]
  Solubility: about 24 millimolar
[3]; [7]
  Efficacy in treating Herpes Simplex infection: effective for treating Herpes Simplex infection, including recurrent sores as well as more serious systemic disease
[3]; Herpes Simplex
  Efficacy of combination with acyclovir or ganciclovir versus single agents: more effective than either agent alone
[3]; Herpes Simplex, MacSynergy II
  Synergy with nucleoside analogs: synergy of gallium with both nucleoside analogs is also demonstrated
[4]; [7]
  Efficacy in treating VZV infection: effective for treating VZV infection, including recurrent sores as well as more serious systemic disease
[4]; VZV
  Efficacy of combination with acyclovir or ganciclovir versus single agents: more effective than either agent alone
[4]; VZV, MacSynergy II
  Synergy with nucleoside analogs: synergy of gallium with both nucleoside analogs is also demonstrated
[5]; EBV
  Efficacy of combination with ganciclovir or foscarnet versus single agents: more effective than either agent alone
[5]; EBV, MacSynergy II
  Synergy with nucleoside analogs: synergy of gallium with both nucleoside analogs is also demonstrated
[5]; HIV negative patients, 250-750 mg/day oral with ganciclovir or foscarnet
  Efficacy in treating EBV infection: effective for treating EBV infection, including recurrent sores as well as more serious systemic disease
[6]
  Synergy with the HAART regime on HIV infection: synergistic with the HAART regime in their effects upon the HIV infection
